# Values quoted from earlier work as cited in PMC4703502 (Pharmacology & therapeutics, 2015).
# Read-outs that look alike come from different tables or passages of the source.
# B1: SEMG1: semenogelin, seminal plasma protein that binds EPPIN on the sperm surface (protein, UniProt P04279 24-462, looked up)
# Semenogelin-1: QKGGSKGRLPSEFSQFPHGQKGQHYSGQKGKQQTESKGSFSIQYTYHVDANDHDQSRKSQQYDLNALHKTTKSQRHLGGSQQLLHNKQEGRDHDKSKGHFHRVVIHHKGGKAHRGTQNPSQDQGNSPSGKGISSQYSNTEERLWVHGLSKEQTSVSGAQKGRKQGGSQSSYVLQTEELVANKQQRETKNSHQNKGHYQNVVEVREEHSSKVQTSLCPAHQDKLQHGSKDIFSTQDELLVYNKNQHQTKNLNQDQQHGRKANKISYQSSSTEERRLHYGENGVQKDVSQSSIYSQTEEKAQGKSQKQITIPSQEQEHSQKANKISYQSSSTEERRLHYGENGVQKDVSQRSIYSQTEKLVAGKSQIQAPNPKQEPWHGENAKGESGQSTNREQDLLSHEQKGRHQHGSHGGLDIVIIEQEDDSDRHLAQHLNNDRNPLFT
# Experiments:
# inhibin B = details: in vivo; ref Tash et al., 2008a
# fertility = details: ref Tash et al., 2008
# spermatozoa = details: ref O’Rand & Widgren, 2012
molecule,measurement,setting,value
CC1(C)CC=C(c2cnc3ccccc3c2)c2cc(C(=O)Nc3ccc(C(=O)O)cc3)ccc21 [BMS-195614],effect on spermatogenesis,"spermatogenesis; tested in vivo, ref Chung et al., 2013",no effect
O=C(O)/C=C/c1nn(Cc2ccc(Cl)cc2Cl)c2cc(C(F)(F)F)ccc12 [Gamendazole],serum levels of inhibin B,inhibin B,fall below measurable levels
same,fertility recovery,fertility; daily treatment with 6 mg/kg during 7 days,29%
same,fertility recovery,"fertility; rats, 3 mg/kg single oral dose",complete recovery
same,infertility,"fertility; rats, 3 mg/kg single oral dose",not complete infertility
"O=C(NCCCCCCCCNC(=O)C(Cl)Cl)C(Cl)Cl [WIN 18,446]",effect on spermatogenesis,"spermatogenesis; ref Amory et al., 2011",completely stops spermatogenesis
BMS-189453,effect on spermatogenesis,"spermatogenesis; ref Chung et al., 2011",inhibit spermatogenesis
B1,decrease in internal calcium levels,spermatozoa; 3μM SEMG1,> 30%
same,time to decrease in internal pH,spermatozoa; SEMG1 bound to EPPIN on the sperm surface,less than 1 minute
